From patent publication US7459455B2, “Pyrimidine compounds” (SmithKline Beecham Corporation, priority 2002, dated 2008) come the findings set out here.

Bounds are passed on as bounds.

One assay deals with T1, GST-VEGFR2 (Homo sapiens, UniProt P35968).
T1 construct: GST-VEGFR2, baculovirus expressed recombinant constructs of the intracellular domains of human TIE2 tagged by GST; made in house
Briefly: VEGF-R2 Enzyme Assay (VEGF-E), LANCE method. In kind it is biochemical. The conditions noted are these: GST-VEGFR2, 75 μM ATP, peptide phosphorylation. From the text: VEGF-R2 Enzyme Assay VEGF-E)
The VEGF enzyme assay used the LANCE method (Wallac) and GST-VEGFR2, baculovirus expressed recombinant constructs of the intracellular domains of human TIE2 tagged by GST. The method measured the ability of the purified enzymes to catalyse the transfer of the γ-phosphate from ATP onto tyrosine residues in a biotinylated synthetic peptide, (biotin-aminohexyl-EEEEYFELVAKKKK-NH2). This peptide phosphorylation was detected using the following procedure: GST-VEGFR2 was incubated for 40-60 mins at room temperature with 75 μM ATP, 5 mM MgCl2, 0.1 mM DTT, 0.1 mg/mL BSA and the test compound (diluted from a 10 mM stock in DMSO for desired concentration) in 100 mM HEPES buffer. The reaction was stopped by the addition of EDTA (final concentration 50 mM). Streptavidin linked-APC (allophycocyanin, Molecular Probe) and Europium-labeled anti-phosphorylated tyrosile antibody (Wallac) were then added at the final concentration of 15 nM and 1 nM, respectively. The APC signal was measured using an ARVO multilabel counter (Wallac Berthold, Japan). The percent inhibition of activity was calculated relative to blank control wells. The concentration of test compound that inhibits 50% of activity (IC50) was interpolated using nonlinear regression (Levernberg-Marquardt) and the equation, γ=Vmax (1−x/(K+x))+Y2, where “K” was equal to the IC50. The IC50 values were converted to pIC50 values, i.e., −log IC50 in Molar concentration.
Background: In TR-FRET formats the signal depends on donor and acceptor labels being close together.

A further assay addresses T2, Recombinant GST-Tie2 (Homo sapiens, UniProt Q02763).
T2 construct: GST
Briefly: Tie2 Fluorescence Polarization Kinase Activity Assay (TIE2-FP). In kind it is biochemical. The conditions noted are these: activated Tie2, 200 μM ATP. On the procedure:
Tie2 Fluorescence Polarization Kinase Activity Assay: (TIE2-FP)
Activation of Recombinant Tie2 Activation:
Recombinant GST-Tie2 was activated by incubating the enzyme in 20 mM Tris-HCl, pH 7.5, 12 mM MgCl2, 100 mM NaCl, 20 μM sodium vanidate, 1 mM DT and 300 μM ATP at room temperature for 2 hours. The activation mixture was then passed through a NAP-25 desalting column (Pharmacia Biotech cat. no. 17-0852-O2) to remove the free ATP. The activated enzyme was stored as aliquots at −80° C. in 20 mM Tris-HCl, pH 7.5 and 100 mM NaCl.
The final assay conditions were 50 mM HEPES, pH 7.5, 5% DMSO (when screening compounds), 200 μM ATP, 5 mM MgCl2, 1 mM DTT, 50 μM sodium vanidate, 1 nM activated enzyme, and 200 μM peptide. IC50's of compounds were measured under subsaturating ATP (200 μM) and varing concentrations of activated Tie2 and peptide substrate (RFWKYEFWR-OH; MW 1873 Da, TFA salt). Panvera Anti-phosphotyrosine antibody (Cat#P2840) and PTK Green Tracer (Cat#P2842) were used to detect the phosphorylated peptide. Polarization was measured on a TECAN Polarion in 138-second cycles for 30 minutes at room temperature. IC50's were then determined from the % polarization using normal calculation methods.
For orientation: In fluorescence polarisation assays a small probe gives low polarisation when free and higher when bound to something large.

For assay [1], the system named is Human umbilical cord endothelial cells (HUVEC). Nature of the assay: VEGF-Driven Cellular Proliferation Assay: BrdU Incorporation Assay (VEGF-C). In kind it is cell-based. On the procedure: VEGF-Driven Cellular Proliferation Assay: BrdU Incorporation Assay (VEGF-C)
Human umbilical cord endothelial cells (HUVEC, Clonetics, CC2519) were passaged in Type I collagen-coated 100-mm petridishes in EGM-MV medium (Clonetics, CC3125) at 37 C in a humidified 5% CO2, 95% air incubator. (HUVEC passaged more than 6 times in vitro were discarded and not subjected to assaying.) The cells were harvested using trypsin/EDTA, counted using a haemocytometer and plated at 5000 cells/well in a Type I-collagen coated 96-well plate (Becton Dickinson, 354407) in M199 medium (Gibco BRL, 12340-030) containing 5% FBS (Hyclone, A 1115-L) and gentamicin (at 50 ug/ml, Gibco BRL). After incubation overnight at 37° C., the media were replaced with 100 ul of M199 serum-free medium containing compounds at various concentrations with 0.6% DMSO and gentamicin. The compounds were diluted in serum-free M199 medium from 10 mM stock solutions prepared in 100% DMSO. After a 30 min incubation at 37° C. the cells were fed with 100 ul of serum-free M199 medium containing gentamicin, 0.2% culture-grade bovine serum albumin (BSA, Sigma A1993) and 20 ng/ml of VEGF (R&D systems, 293-VE) or 0.6 ng/ml of basic FGF (R&D systems, 233-FB), and cultured at 37° C. for another 24 h. The cells were pulsed with bromodeoxyuridine (BrdU at 10 μM in serum-free M199) at 37° C. for an additional 24 h. The incorporation of BrdU into the proliferating HUVEC were analyzed using BrdU Cell Proliferation ELISA (Roche Molecular Biochemicals, 1647229) according to the manufacturer's protocols. The optical density at 450 nm was measured with a multilabel counter (ARVO SX, Wallac). The percent inhibition of cell growth was calculated relative to blank control wells. The concentration of test compound that inhibits 50% of cell growth (IC50) was interpolated using nonlinear regression (Levernberg-Marquardt) and the equation, γ=Vmax (1−x/(K+x))+Y2, where “K” was equal to the IC50. The IC50 values were converted to pIC50 values, i.e., −log IC50 in Molar concentration.

T1 sequence (P35968 786-1356 limits assumed): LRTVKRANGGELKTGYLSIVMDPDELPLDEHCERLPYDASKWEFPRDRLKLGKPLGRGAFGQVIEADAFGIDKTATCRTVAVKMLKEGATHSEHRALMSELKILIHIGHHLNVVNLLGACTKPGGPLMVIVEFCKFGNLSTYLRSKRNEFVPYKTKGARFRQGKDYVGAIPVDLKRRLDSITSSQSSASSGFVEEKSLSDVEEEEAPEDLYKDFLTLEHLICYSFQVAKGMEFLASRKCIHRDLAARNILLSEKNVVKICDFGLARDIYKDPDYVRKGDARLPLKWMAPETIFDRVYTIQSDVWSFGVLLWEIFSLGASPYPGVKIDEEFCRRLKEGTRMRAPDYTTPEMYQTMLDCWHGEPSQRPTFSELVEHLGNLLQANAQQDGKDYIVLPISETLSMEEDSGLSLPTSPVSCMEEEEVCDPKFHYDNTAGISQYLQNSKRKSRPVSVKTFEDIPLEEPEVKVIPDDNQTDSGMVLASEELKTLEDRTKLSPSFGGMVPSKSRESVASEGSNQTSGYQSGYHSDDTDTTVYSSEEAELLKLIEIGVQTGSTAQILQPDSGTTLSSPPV
T2 sequence (Q02763 770-1124 limits assumed): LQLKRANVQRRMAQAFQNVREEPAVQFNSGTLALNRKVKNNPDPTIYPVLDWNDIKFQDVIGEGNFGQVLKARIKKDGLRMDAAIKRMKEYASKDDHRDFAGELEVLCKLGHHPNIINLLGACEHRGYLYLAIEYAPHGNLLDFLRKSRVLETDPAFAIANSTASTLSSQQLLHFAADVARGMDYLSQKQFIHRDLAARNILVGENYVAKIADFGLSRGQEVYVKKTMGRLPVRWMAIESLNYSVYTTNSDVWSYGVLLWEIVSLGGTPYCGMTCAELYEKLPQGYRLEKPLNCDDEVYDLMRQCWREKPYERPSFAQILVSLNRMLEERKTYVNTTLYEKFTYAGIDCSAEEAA

As to `CN(c1cccc(NC(=O)Nc2cccc(F)c2)c1)c1ccnc(Nc2cccc(S(N)(=O)=O)c2)n1` [Example 16, 3-({4-[[3-({[(3-Fluorophenyl)amino]carbonyl}amino)phenyl](methyl)amino]pyrimidin-2-yl}amino)benzenesulfonamide], the half-inhibitory concentration (IC50) at GST-VEGFR2 was under 100 nM; on Recombinant GST-Tie2 it was 100 to 1000 nM; in assay [1] it was under 100 nM.
Turning to `CCS(=O)(=O)c1ccc(OC)c(Nc2nccc(N(C)c3ccc(NC(=O)Nc4cc(C(F)(F)F)ccc4F)cc3)n2)c1` [Example 17, N-{4-[(2-{[5-(Ethylsulfonyl)-2-methoxyphenyl]amino}pyrimidin-4-yl)(methyl)amino]phenyl}-N′-[2-fluoro-5-(trifluoromethyl)phenyl]urea], the IC50 (against GST-VEGFR2; at Recombinant GST-Tie2; in assay [1]) was under 100 nM throughout.
As for `CCS(=O)(=O)c1ccc(OC)c(Nc2nccc(N(C)c3ccc(NC(=O)Nc4cccc(F)c4)cc3)n2)c1` [Example 18, N-{4-[(2-{[5-(Ethylsulfonyl)-2-methoxyphenyl]amino}pyrimidin-4-yl)(methyl)amino]phenyl}-N′-(3-fluorophenyl)urea], the IC50 (on GST-VEGFR2; on Recombinant GST-Tie2; in assay [1]) was under 100 nM each time.
For `CCc1cccc(NC(=O)Nc2ccc(N(C)c3ccnc(Nc4ccc(S(N)(=O)=O)cc4)n3)cc2)c1` [Example 20, 4-({4-[[4-({[(3-ethylphenyl)amino]carbonyl}amino)phenyl](methyl)amino]pyrimidin-2-yl}amino)benzenesulfonamide], the IC50 (against GST-VEGFR2; at Recombinant GST-Tie2; in assay [1]) was under 100 nM in each case.
For `CN(c1ccc(NC(=O)Nc2ccc(OC(F)(F)F)cc2)cc1)c1ccnc(Nc2ccc(S(N)(=O)=O)cc2)n1` [Example 21, 4-{[4-(methyl{4-[({[4-(trifluoromethoxy)phenyl]amino}carbonyl)amino]phenyl}amino)pyrimidin-2-yl]amino}benzenesulfonamide], the half-maximal inhibitory concentration (IC50) (at GST-VEGFR2; on Recombinant GST-Tie2; in assay [1]) was under 100 nM throughout.

As a reminder, the IC50 is the concentration that inhibits the measured activity by half.
